In patent US8080522B2, “Polyethlene glycol modifications of thymosin alpha-1” (Institute of Pharmacology and Toxicology Academy of …, priority 2005, dated 2011):

How the values were obtained:
[1] = test system: T lymphocyte (spleen cell); assay: T lymphocyte proliferation stimulated by Con A (3H-TdR incorporation); type: cell-based, mouse; conditions: for 3H-TdR incorporation (cpm, x ± SD): Con A 0.5 μg/mL, 72 hours, n = 4; for Enhancement percentage: versus Con A alone
Procedure: Sacrifice mouse by draining artery blood, remove spleen in sterile condition, and make it to spleen cell suspension. After red blood cell lysis, wash for 3 times, and stain with Trypan Blue to count the living cells. The amount of living cells should be more than 95%. Dilute the cell concentration to 5×10^6 cell/mL by adding RPMI-1640 culture with 10% bovine serum. Add spleen cell suspension to a sterilized 96-well plate for 100 μL per well. The total amount is 200 μL per well (including 50 μL Con A and 50 μL medicament). Each sample concentration is repeated fro 3-4 wells. Incubate the plate in a 5% CO2 chamber for 72 hours, add 10 μci/mL ^3H-TdR 20 μL per well 16 hours before termination of the incubation, giving rise to a final concentration of 1.0 μci (37.0 KBq)/mL. Collect cells on filter membrane by using Herveste 96 cell harvester, dried in 80° C. oven for 20 minutes or dried in air. Put the dried filter membrane into 1450-423 microBeta sample bag, add scintillation liquid, and measure radioactivity (cpm) in Perkin Elmer MicroBeta Trilux 1450 Scintillation Counter.

[2] = Half-life in liver homogenate (HPLC); type: in vitro ADME; conditions: 37° C., sample 0.4 mg/mL or 0.8 mg/mL, read-out: t1/2 in liver homogenate (converted)
Procedure: Experimental method: Prepare 0.4 mg/mL or 0.8 mg/mL sample aqueous solution in centrifuge tube, adding 50 μL liver homogenate. Then incubate for different time in 37° C. water bath. Terminate the reaction and precipitate liver homogenate protein by heating the mixture in boiling water for 5 minutes. Centrifuge it (10000 rpm) for 10 minutes. Analyze the supernatant by HPLC. The data was statistically analyzed by Origin Prof. 5.0.
HPLC: Column temperature: 25° C.; Flow rate 1.0 mL/min; Detection wavelength: 200 nm; Mobile phase A: 0.1% TFA/H2O; Mobile phase B: 0.1% TFA/70% CH3CN.

[3] = Plasma concentration / pharmacokinetics in mouse (competitive ELISA); type: in vivo; conditions: 300 μg per mouse, injected peritoneally, parameters in 24 h; for AUC: n = 3; for Cmax / Tmax: serum, ip, 300 ug/animal; for Cmax: n = 3, read-out: Cmax; for Tmax: n = 3, read-out: Tmax
Procedure: Coating antigen: Dilute Tα1 detection antigen stock solution to a final concentration of 2 μg/mL with coating solution, and add it into the wells of ELISA plate for 0.1 mL per well, and incubate at 4° C. for 5 days. Then wash the ELISA plate 3 times with washing buffer, each 0.2 mL/well and 3 min/time. Add 0.2 mL blocking buffer to each well, incubate for 1.5 hours at 37° C., wash plate 2 times by washing buffer, and spin dried.
Sample preparation: Weight sample accurately, dissolve it in saline to a concentration of 1.5 mg/mL. Administrate 0.2 Ml by injection to each mouse peritoneally. Collect blood sample in 3 min, 20 min, 40 min, 1 h, 2 h, 3 h, 6 h, 8 h, 12 h, and 24 h. Collect serum by centrifuge the blood samples for 5 minutes at 10000 rpm, stored at −20° C. in a freezer. o prepare test sample, […] was added by 0.1 mL 1:1500 rabbit anti-Tα1 serum (final concentration is 1:6000), and 0.2 mL CD-1® mouse serum, and […]. Prepare blank control at the same time. Total volume is 0.4 mL. Incubate for 2 hours at 37° C. To prepare standard sample, Tα1 0.1 mL with different concentrations from 0.0004 to 400 μg/mL was added by 0.1 mL 1:1500 rabbit anti-Tα1 serum (final concentration is 1:6000), and 0.2 mL CD-1® mouse serum. Prepare blank control at the same time. Total volume is 0.4 mL. Incubate for 2 hours at 37° C.
Sample Testing Add the prepared test sample and standard sample to ELISA plate, 0.1 mL/well, reacting for 1 hour in 37° C. chamber. Wash the plates 3 times, spin dryed. Add substrate 0.1 mL/well for 10 minutes. Add 2 mol/L H2SO4 0.05 mL to each well to terminate the reaction. Measure the OD value at 450 nm. Plot the standard curve with the concentration of Tα1 standard sample as abscissa and OD value as vertical coordinate. Calculate the content of test sample according to this standard curve.

spleen cell = assay: Interferon-γ production of spleen cells stimulated by Con A (double antibody sandwich ELISA); type: cell-based; conditions: for Concentration of IFN-γ: Con A 0.5 μg/mL, 24 hours, n = 3; for Enhancement percentage: versus Con A alone
Procedure: Prepare spleen cell suspension in sterile condition. Adjust cell concentration to 5×10^6 cell/mL by adding RPMI-1640 culture with 20% bovine serum. Add 0.5 mL cell suspension, 0.25 mL Con A (final concentration is 0.5 μg/mL) and 0.25 mL samples with different concentrations in 24-well plate; and add RPMI-1640 culture in control wells. Incubate the plates in a 5% CO2 chamber at 37° C. for 24 hours. Centrifuge and collect supernatant, test the content of IFN-γ in supernatant by double antibody sandwich ELISA. The protocol is according to the instruction on ELISA kit.

| half-life [2] | AUC [3] | Cmax [3] | Tmax [3] | Substance | 3H-TdR incorporation (cpm, x ± SD) ([1]; Table 2-1, sample 10 μg/mL) | Enhancement percentage ([1]; Table 2-1, sample 10 μg/mL) | 3H-TdR incorporation (cpm, x ± SD) ([1]; Table 2-1, sample 50 μg/mL) | Enhancement percentage ([1]; Table 2-1, sample 50 μg/mL) | 3H-TdR incorporation (cpm, x ± SD) ([1]; Table 2-1, sample 100 μg/mL) | Enhancement percentage ([1]; Table 2-1, sample 100 μg/mL) | Concentration of IFN-γ (spleen cell; Table 1-1, sample 1 μg/mL) | Enhancement percentage (spleen cell; Table 1-1, sample 1 μg/mL) | Concentration of IFN-γ (spleen cell; Table 1-1, sample 10 μg/mL) | Enhancement percentage (spleen cell; Table 1-1, sample 10 μg/mL) | Concentration of IFN-γ (spleen cell; Table 1-1, sample 100 μg/mL) | Enhancement percentage (spleen cell; Table 1-1, sample 100 μg/mL) | 3H-TdR incorporation (cpm, x ± SD) ([1]; Table 2-2, sample 10 μg/mL) | Enhancement percentage ([1]; Table 2-2, sample 10 μg/mL) | 3H-TdR incorporation (cpm, x ± SD) ([1]; Table 2-2, sample 50 μg/mL) | Enhancement percentage ([1]; Table 2-2, sample 50 μg/mL) | also measured |
| --- | --- | --- | --- | --- | --- | --- | --- | --- | --- | --- | --- | --- | --- | --- | --- | --- | --- | --- | --- | --- | --- |
| 168 min | 8710 ng·h/mL | 5650 ng/mL | 20 min | Ac-SDAAVDTSSECTTKDLKEKKEVVEEAEN-OH [BMJBT003] |  |  |  |  |  |  |  |  |  |  |  |  | 21825 ± 2216 cpm | +87.5% | 20465 ± 2432 cpm | +77.3% | 3H-TdR incorporation (cpm, x ± SD) ([1]; Table 2-2, sample 100 μg/mL): 15240 ± 2369 cpm; Enhancement percentage ([1]; Table 2-2, sample 100 μg/mL): +30.9%; Concentration of IFN-γ (spleen cell; Table 1-2, sample 1 μg/mL): 3428.6 ± 111.9 pg/mL; Enhancement percentage (spleen cell; Table 1-2, sample 1 μg/mL): +5.2%; Concentration of IFN-γ (spleen cell; Table 1-2, sample 10 μg/mL): 3732.2 ± 30.2 pg/mL; Enhancement percentage (spleen cell; Table 1-2, sample 10 μg/mL): +14.5%; Concentration of IFN-γ (spleen cell; Table 1-2, sample 100 μg/mL): 3990.8 ± 250.0 pg/mL; Enhancement percentage (spleen cell; Table 1-2, sample 100 μg/mL): +22.5% |
| 126 min | 2440 ng·h/mL | 1860 ng/mL | 20 min | Ac-SDAAVDTCSEITTKDLKEKKEVVEEAEN-OH [BMJBT002] |  |  |  |  |  |  |  |  |  |  |  |  | 23881 ± 2809 cpm | +105.1% | 19611 ± 2612 cpm | +68.5% | 3H-TdR incorporation (cpm, x ± SD) ([1]; Table 2-2, sample 100 μg/mL): 11956 ± 1555 cpm; Enhancement percentage ([1]; Table 2-2, sample 100 μg/mL): +2.6% |
| 252 min | 9220 ng·h/mL | 10100 ng/mL | 20 min | Ac-SDAAVDTSSEITTKDLKEKKEVVEEAEN-OH [Tα1, reference compound] | 17871 ± 4635 cpm | +32.5% | 17007 ± 1526 cpm | +26.1% | 14624 ± 3253 cpm | +6.6% | 1449.3 ± 334.3 pg/mL | +92.8% | 1514.0 ± 102.1 pg/mL | +101.4% | 1007.2 ± 31.3 pg/mL | +34.0% | 18315 ± 2194 cpm | +57.3% | 17007 ± 1526 cpm | +46.1% | 3H-TdR incorporation (cpm, x ± SD) ([1]; Table 2-2, sample 100 μg/mL): 14383 ± 3225 cpm; Enhancement percentage ([1]; Table 2-2, sample 100 μg/mL): +23.5%; Concentration of IFN-γ (spleen cell; Table 1-3, sample 1 μg/mL): 3609.6 ± 167.8 pg/mL; Enhancement percentage (spleen cell; Table 1-3, sample 1 μg/mL): +18.2%; Concentration of IFN-γ (spleen cell; Table 1-3, sample 10 μg/mL): 3891.5 ± 106.1 pg/mL; Enhancement percentage (spleen cell; Table 1-3, sample 10 μg/mL): +27.4%; Concentration of IFN-γ (spleen cell; Table 1-3, sample 100 μg/mL): 4361.3 ± 87.8 pg/mL; Enhancement percentage (spleen cell; Table 1-3, sample 100 μg/mL): +42.8% |
| 48 min | 8760 ng·h/mL | 4940 ng/mL | 20 min | Ac-SDAAVDTSSEITTKDCKEKKEVVEEAEN-OH [BMJBT004] |  |  |  |  |  |  |  |  |  |  |  |  |  |  |  |  | Concentration of IFN-γ (spleen cell; Table 1-2, sample 1 μg/mL): 3671.1 ± 86.0 pg/mL; Enhancement percentage (spleen cell; Table 1-2, sample 1 μg/mL): +12.7%; Concentration of IFN-γ (spleen cell; Table 1-2, sample 10 μg/mL): 3216.1 ± 228.6 pg/mL; Enhancement percentage (spleen cell; Table 1-2, sample 10 μg/mL): −1.3%; Concentration of IFN-γ (spleen cell; Table 1-2, sample 100 μg/mL): 3565.9 ± 77.8 pg/mL; Enhancement percentage (spleen cell; Table 1-2, sample 100 μg/mL): +0.5% |

Continued, substance first:

| Substance | half-life [2] | AUC [3] | Cmax [3] | Tmax [3] | 3H-TdR incorporation (cpm, x ± SD) ([1]; Table 2-1, sample 10 μg/mL) | Enhancement percentage ([1]; Table 2-1, sample 10 μg/mL) | 3H-TdR incorporation (cpm, x ± SD) ([1]; Table 2-1, sample 50 μg/mL) | Enhancement percentage ([1]; Table 2-1, sample 50 μg/mL) | 3H-TdR incorporation (cpm, x ± SD) ([1]; Table 2-1, sample 100 μg/mL) | Enhancement percentage ([1]; Table 2-1, sample 100 μg/mL) | Concentration of IFN-γ (spleen cell; Table 1-1, sample 1 μg/mL) | Enhancement percentage (spleen cell; Table 1-1, sample 1 μg/mL) | Concentration of IFN-γ (spleen cell; Table 1-1, sample 10 μg/mL) | Enhancement percentage (spleen cell; Table 1-1, sample 10 μg/mL) | Concentration of IFN-γ (spleen cell; Table 1-1, sample 100 μg/mL) | Enhancement percentage (spleen cell; Table 1-1, sample 100 μg/mL) | 3H-TdR incorporation (cpm, x ± SD) ([1]; Table 2-2, sample 10 μg/mL) | Enhancement percentage ([1]; Table 2-2, sample 10 μg/mL) | 3H-TdR incorporation (cpm, x ± SD) ([1]; Table 2-2, sample 50 μg/mL) | Enhancement percentage ([1]; Table 2-2, sample 50 μg/mL) | also measured |
| --- | --- | --- | --- | --- | --- | --- | --- | --- | --- | --- | --- | --- | --- | --- | --- | --- | --- | --- | --- | --- | --- |
| Ac-SDAAVDTSSEITTKDLKEKKEVVEEAENC-NH2 [BMJBT009] | 24 min | 2120 ng·h/mL | 443 ng/mL | 60 min | 24888 ± 2473 cpm | +84.5% | 24164 ± 2683 cpm | +46.6% | 20574 ± 2746 cpm | +56.6% | 1895.7 ± 49.8 pg/mL | +152.2% | 1814.5 ± 105.5 pg/mL | +141.4% | 672.1 ± 94.3 pg/mL | −11.0% |  |  |  |  |  |
| Ac-SDAAVDTSSEITTKDLCEKKEVVEEAEN-OH [BMJBT005] | 168 min | 6110 ng·h/mL | 3650 ng/mL | 20 min | 22237 ± 5551 cpm | +64.9% | 22413 ± 1436 cpm | +66.2% | 17551 ± 2491 cpm | +30.1% | 1822.2 ± 24.3 pg/mL | +142.4% | 1706.5 ± 139.3 pg/mL | +127.0% | 906.9 ± 10.7 pg/mL | +20.6% |  |  |  |  |  |
| Ac-SDAAVDTSSEITTKDLKEKKCVVEEAEN-OH [BMJBT006] | 156 min | 12800 ng·h/mL | 11500 ng/mL | 20 min | 21152 ± 2936 cpm | +56.8% | 19880 ± 1777 cpm | +47.4% | 14319 ± 2333 cpm | +6.2% |  |  |  |  |  |  |  |  |  |  |  |
